# Patent US10202584B2, “Red-shifted luciferase-luciferin pairs for enhanced bioluminescence” (The Regents of the University of California, priority 2016, dated 2019)
# Like-named read-outs stand apart in the source and are kept apart here.
# Key:
# Rluc8 = Rluc8 (Renilla reniformis, UniProt P27652, A143M/A55T/C124A/K136R/M185V/M253L/S130A/S287L); conditions: RLuc mutant Rluc8; cited from earlier work
# NanoLuc = NanoLuc (Oplophorus gracilirostris, UniProt Q9GV45, A31E/A60N/A81I/F95D/I117V/K70R/L54V/L99Q/M102K/N193R/P142E/Q151K/Q38R/Q45L/V71I/Y165I); conditions: cited from earlier work
# [1] = system: luciferase-expressing HEK 293T cells; test: Bioluminescence imaging of intact luciferase-expressing HEK 293T cells; format: cell-based, Human; conditions: FLuc-expressing HEK 293T cells, millimolar substrate
# Description: Images were acquired without a filter (1c) or with a 695±25 nm NIR emission filter (1e). Panels 2d and 2f are quantification results for Panels 2c and 2e, respectively. […] Data are shown as mean and s.d. of three independent experiments.
# Data are shown as mean and s.d. of three independent experiments.
# HEK 293T (purchased from ATCC and tested for mycoplasma by PCR), which is one of the most widely used and readily transfectable cell lines, was used for all tissue culture transfections. HEK 293T cells were cultured at 37° C. with 5% CO2 in Dulbecco's Modified Eagle's Medium (DMEM) supplemented with 10% fetal bovine serum (FBS). Transfection mixtures were prepared with 3 μg of plasmid DNA and 9 μg of PEI (polyethylenimine, linear, MW 25 kDa) in DMEM and incubated for 20 min at room temperature. The medium was first aspirated, and subsequently, the transfection mixtures were added to cells at 70% confluency on 35-mm culture dishes seeded one day prior to transfection. […]
# The number and density of cells in DPBS suspension were determined using a hemocytometer. […] To use the luminescence dark box to directly image cells, we added luciferase-expressing HEK293T cells (2000 cells per well with ˜70% transfection efficiency) and the corresponding luciferin substrates into wells of a white-wall, 96-well plate. […] All images were analyzed using the Fiji image analysis software [1].
# purified luciferases = test: In vitro bioluminescence intensity with purified recombinant proteins; format: biochemical; conditions: assayed with NanoLuc
# Description: (§1) Signals were integrated until the substrates were completely consumed.
# HEK 293T cells [2] = test: Evaluation of the cytotoxicity of luciferins
# Experimental: (§2) FIG. 15 is a panel showing the evaluation of the cytotoxicity of various luciferins. (15a) Viability of HEK 293T cells determined using RealTime-Glo™ MT Cell Viability Assay (Promega) after incubation with individual luciferin substrates for 24 h at 37° C. (15b) Evaluation of cell morphology and staining of dead cells. Cells incubated with the indicated luciferins for 24 h at 37° C. were stained with propidium iodide (PI), a fluorescent dye for dead cells.
# (§3) Cell viability was determined using RealTime-Glo™ MT Cell Viability Assay (Promega) after incubation of HEK 293T cells with individual luciferin substrates for 24 h at 37° C. Cell morphology was further evaluated using microscopy. Briefly, HEK 293T cells in 35-mm culture dishes were washed twice with 400 μL DPBS pre-warmed to 37° C., and further incubated in 500 μL DPBS containing 20 μg/mL propidium iodide (PI), a fluorescent stain for dead cells, at room temperature for 15 min under light-shielded conditions. Cells were further rinsed with pre-warmed 300 μL DPBS three times to remove residual PI. Cells in 300 μL DPBS were next analyzed on a Motic AE31 microscope equipped with a 100 W Short-Arc Mercury lamp, a 540/25 nm excitation filter, a 565 nm longpass dichroic mirror, and a 605/55 nm emission filter.
# BALB/c mice = test: Bioluminescence imaging in deep tissues of live mice (hydrodynamic transfection); format: in vivo
# Description: FIG. 2 is a panel showing bioluminescence imaging of luciferase-luciferin pairs at superficial sites and in deep tissues of live mice. […] The group numbers in panel 2b are aligned with those in panel 2a. Two injection sites (one for luciferase-expressing cells and one for empty vehicle controls) for each mouse are illustrated with red arrows. […] Data are shown as mean and s.d. (n=3). […] Data are shown as mean and s.d. (n=4 for teLuc, Antares, and Antares2 with 3.3 μmol substrates, and n=3 for all other groups).
# FIG. 16 is a graph of bioluminescence kinetics of IP injected luciferins (3.3 μmol each) in hydrodynamically transfected mice.
# Hydrodynamic transfections were performed on BALB/c mice as described elsewhere. Briefly, 20 μg of each luciferase-expressing plasmid in sterilized saline (volume equivalent to 9% bodyweight of the treated mouse) was injected into restrained mice via the tail vein over 4-8 sec. Mice were allowed to recover on heat pads and were monitored until their breathing rate returned to normal. […] To inject 3.3 μmol DTZ or furimazine, the total volumes were increased to 500 μL. […] The Fiji image analysis software was used to process images and derive integrated intensities.
# HEK 293T cells [3] = test: Cytotoxicity of luciferins (RealTime-Glo MT Cell Viability Assay; propidium iodide staining); format: cell-based; conditions: 24 h at 37° C., millimolar concentrations
# Experimental: as §2, §3
# [4] = target: Antares (NanoLuc fused to CyOFP1) (Oplophorus gracilirostris, UniProt Q9GV45); test: Apparent Michaelis constant and kcat, Antares, bioluminescence; format: biochemical; conditions: assay buffer pH 6.0, mean ± s.d., n = 3
# Description: (§4) The final concentrations of all enzymes were 100 pM.
# (9a) Primary structural arrangement of Antares and Antares2.
# as §1
# [5] = target: NanoLuc luciferase (Oplophorus gracihrostris-derived, parent, SEQ ID NO: 1) (Oplophorus gracilirostris, UniProt Q9GV45, A31E/A60N/A81I/F95D/I117V/K70R/L54V/L99Q/M102K/N193R/P142E/Q151K/Q38R/Q45L/V71I/Y165I); test: Apparent Michaelis constant and kcat, purified NanoLuc, bioluminescence; conditions: kcat=Imax/(QY*[E]); assay buffer pH 6.0; mean ± s.d., n = 3
# Description: as §4, §1
# [6] = target: ReNL (NanoLuc fused to fluorescent protein) (Oplophorus gracilirostris, UniProt Q9GV45); test: Apparent Michaelis constant and kcat, ReNL, bioluminescence; format: biochemical; conditions: assay buffer pH 6.0, mean ± s.d., n = 3
# Description: as §4, §1
# [7] = apparent, 100 pM enzyme, substrate 0.78 to 50 μM
# Chain of ReNL (NanoLuc fused to fluorescent protein) (Q9GV45 28-196): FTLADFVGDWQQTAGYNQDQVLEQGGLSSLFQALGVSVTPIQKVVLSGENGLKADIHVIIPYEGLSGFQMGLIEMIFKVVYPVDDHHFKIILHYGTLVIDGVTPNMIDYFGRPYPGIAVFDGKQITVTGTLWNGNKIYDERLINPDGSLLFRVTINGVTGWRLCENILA
# Chain of Antares (NanoLuc fused to CyOFP1) (Q9GV45 28-196): as above
# Chain of Rluc8 (P27652 whole entry A55T/C124A/S130A/K136R/A143M/M185V/M253L/S287L): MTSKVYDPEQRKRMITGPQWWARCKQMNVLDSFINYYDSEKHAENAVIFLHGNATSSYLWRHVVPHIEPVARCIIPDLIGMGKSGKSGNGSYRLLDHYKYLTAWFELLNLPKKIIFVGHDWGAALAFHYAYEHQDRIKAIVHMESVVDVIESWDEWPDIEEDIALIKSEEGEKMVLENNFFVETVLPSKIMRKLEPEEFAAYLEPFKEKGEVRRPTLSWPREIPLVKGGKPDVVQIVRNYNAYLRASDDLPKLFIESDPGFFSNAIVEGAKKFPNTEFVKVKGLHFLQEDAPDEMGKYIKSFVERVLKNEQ
# Chain of NanoLuc (Q9GV45 28-196 with tags or gaps with the stated changes limits assumed): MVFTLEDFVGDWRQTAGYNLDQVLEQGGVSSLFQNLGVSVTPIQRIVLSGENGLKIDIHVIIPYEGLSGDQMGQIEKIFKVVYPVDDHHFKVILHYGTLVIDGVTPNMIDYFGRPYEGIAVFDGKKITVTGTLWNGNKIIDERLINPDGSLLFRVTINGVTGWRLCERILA
# Chain of NanoLuc luciferase (Oplophorus gracihrostris-derived, parent, SEQ ID NO: 1) (Q9GV45 28-196 A31E/Q38R/Q45L/L54V/A60N/K70R/V71I/A81I/F95D/L99Q/M102K/I117V/P142E/Q151K/Y165I/N193R, looked up): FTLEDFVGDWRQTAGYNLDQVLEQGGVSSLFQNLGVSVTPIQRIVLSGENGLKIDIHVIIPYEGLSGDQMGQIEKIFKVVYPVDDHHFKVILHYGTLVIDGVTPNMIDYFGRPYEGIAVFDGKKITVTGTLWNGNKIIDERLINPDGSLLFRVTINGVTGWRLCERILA
molecule,measurement,setting,value
6-pi-OH-CTZ,red-shift of Rluc8 bioluminescence,Rluc8,47 nm
same,bioluminescence with NanoLuc,NanoLuc,hardly any bioluminescence
O=C(O)[C@H]1CSC(c2nc3ccc(O)cc3s2)=N1 [D-luciferin],bioluminescence intensity with FLuc compared with teLuc or Antares2 with micromolar DTZ,[1],1-2 orders of magnitude lower
"O=c1c(Cc2ccccc2)nc2c(-c3ccccc3)[nH]c(-c3ccccc3)cn1-2 [DTZ, diphenylterazine]",brightness relative to furimazine,purified luciferases,reduced brightness
same,cell toxicity,"HEK 293T cells [2]; HEK 293T cells, 24 h at 37° C., RealTime-Glo MT Cell Viability Assay",minimal cell toxicity at millimolar concentrations
same,bioluminescence kinetics after intraperitoneal injection,"BALB/c mice; 3.3 μmol, hydrodynamically transfected mice",extended kinetics
same,background emission in untransfected BALB/c mice,BALB/c mice; DTZ injection,did not yield any background emission
O=c1c(Cc2ccccc2)nc2c(-c3ccccc3)[nH]c(-c3ccccc3)cn1-2 [DTZ],cell toxicity,HEK 293T cells [3],minimal cell toxicity
"O=c1c(Cc2ccccc2)nc2c([Se]c3ccccc3)[nH]c(-c3ccccc3)cn1-2 [STZ, 2-benzyl-6-phenyl-8-(phenylselanyl)imidazo[1,2-a]pyrazin-3(7H)-one]",brightness relative to furimazine,purified luciferases,reduced brightness
same,cell toxicity,HEK 293T cells [2],induced cell death
same,cytotoxicity by propidium iodide staining of dead cells,HEK 293T cells [2],further confirmed by the red fluorescence of PI
O=c1c(Cc2ccco2)nc2c(Cc3ccccc3)[nH]c(-c3ccccc3)cn1-2 [furimazine],Km,[4]; [7],11.1 ± 0.5 µM
same,kcat,[4]; kcat=Imax/(QY*[E]),112 ± 2 s⁻¹
same,kcat,[5],88.2 ± 1.7 s⁻¹
same,Km,[6]; [7],14.5 ± 1.3 µM
same,kcat,[6]; kcat=Imax/(QY*[E]),104 ± 4 s⁻¹
same,cell toxicity,HEK 293T cells [2],induced cell death
same,cytotoxicity by propidium iodide staining of dead cells,"HEK 293T cells [2]; HEK 293T cells, 24 h at 37° C.",further confirmed by the red fluorescence of PI
AkaLumine-HCl,bioluminescence intensity with FLuc compared with teLuc or Antares2 with micromolar DTZ,[1],1-2 orders of magnitude lower
same,cell toxicity,HEK 293T cells [2],induced cell death
same,cytotoxicity by propidium iodide staining of dead cells,"HEK 293T cells [2]; HEK 293T cells, 24 h at 37° C.",further confirmed by the red fluorescence of PI
